From patent publication US20150174144A1, “TETRACYCLINE COMPOUNDS FOR TREATING NEURODEGENERATIVE DISORDERS” (PARATEK PHARMACEUTICALS, INC., priority 2012, published 2015)
≈ marks a conversion by molar mass, not a printed value. Like-named read-outs stand apart in the source and are kept apart here. Each block holds one compound with its values, some of them ahead of it.

How the values were obtained:
[1] = test system: MS; settings: cited from earlier work; for % lesion reduction: gadolinium-enhancing MRI lesions
[2] = Alkylperoxy radical scavenging assay (AIPH, AE-Trolox oxidation); settings: for IC50: 5 mM AIPH, 37° C., 8 minutes, read-out: IC50, inhibition of AE-Trolox oxidation (alkylperoxy radical scavenging); for Percent Trolox Activity / Trolox Equivalents: relative to Trolox
Procedure: In a separate assay, alkylperoxy radicals were generated in vitro using the radical generator AIPH (2,2′-azobis-[2-(2-imidazolyn-2-yl)-propane) and the ability of tetracyclines to scavenge these radicals was determined. […] Also, the ability of Compound 1 and minocycline to specifically scavenge peroxynitrite-carbonate radicals was determined.
In this study, alkylperoxy radicals were generated in vitro using the radical generator AIPH (2,2′-azobis-[2-(2-imidazolyn-2-yl)-propane) and the ability of tetracyclines, such as Compound 1, to scavenge these radicals was determined.
Trolox is a known scavenger of peroxyradicals. Structurally similar to a-tocopherol, Trolox reacts with peroxyradicals via a known mechanism with linear kinetics under excess oxygen conditions. In the presence of a competing antioxidant compound, the rate of Trolox oxidation will change based on the relative rate of oxidation and concentration of the competing antioxidant compound (Huang, et al., J. Agric. Food Chem. 2005, 25, 1841-1856). By measuring the effect of antioxidant concentration on the rate of degradation of Trolox, the relative antioxidant capacity of a compound can be determined. This principle is the basis of the widely used antioxidant capacity assay, ORAC (Huang, et al., J. Agric. Food Chem. 2002, 50, 1815-1821). Unlike ORAC which uses a fluorescent dye indicator, the assay described here directly measures the oxidation of the Trolox derivative, 2-aminoethyl-Trolox (AE-Trolox). This method eliminates interference of the fluorescent dye reaction by tetracycline compounds.
To the first column of a 96-well PCR plate (0.2 mL volume) was added 160 μL of TCWS. One well of the first column would equal one IC50 determination. […] To the remaining wells in columns 2-11 was added 80 μL of AET-WS. Using a multichannel pipettor, column 1 was serially diluted in 2-fold dilutions by removing 80 μL from column 1 and transferring with mixing to column 2. Column 2 was then diluted to column 3 and so on until column 11 where 80 μL of the diluted mixture was removed and discarded. Four wells of row 12 were designated as the 0 test compound/0 AIPH control to which 80 μL of AET-WS was added. One well of row 12 per test compound was designated as the 0 test compound control to which 80 μL of the AET-WS was added.
(§1) The plate was covered and incubated for 5 minutes at 37° C. upon which the reaction was initiated by addition of 20 μL of AIPH to columns 1-11 using a multichannel pipettor with mixing. The reaction was initiated similarly to the 0 test compound wells of column 12. To the 0 test compound/0 AIPH control wells was added 20 μL of PB buffer. The plate was incubated at 37° C. for 8 minutes (the reaction is linear for 10 minutes) and quenched by addition of 50 μL of AA to all wells with mixing. The plate was placed on ice for 5 minutes. Quenched assay mixtures were stable at room temperature for at least 24 hours.
Each reaction mixture was analyzed for AE-Trolox by 2D-LCMS on a Shimadzu 2010 equipped with a loading column (Shim-pack MAYI-ODS, 4.6×10 mm) and a gradient column Phenomenex Luna C18(2) column, 3 um, 4.6×50 mm. Using an automated 2-position swithching valve, samples were loaded onto the loading column by Pump C and washed for 1 minute with loading buffer. At 1 minute, the valve was switched to elution position (Position B, reversed flow through loading column) and the samples were eluted through the gradient column. The loading buffer (Buffer C) was 10% acetonitrile in water with 0.2% formic acid and the gradient buffers were water+0.2% formic acid (A buffer) and acetonitrile+0.2% formic acid (B buffer). Typical injection volumes were 30 μL.
From the TIC integration of AE-Trolox and AE-Trolox-d4, a ratio was calculated:
Ratio=AUCAE-Trolox/AUCAE-Trolox-d4
Percent inhibition of AE-Trolox oxidation (measured as disappearance of AE-Trolox) was then determined by:
% Inhibition=[1−((Ratio0−Ratiox)/(Ratioo−Ratiof))]*100

[3] = test system: animal models of MS and neuroprotection; assay: Accepted animal models of MS and neuroprotection (Table 2); parameters: concentration or dose not given beside the values; settings: in vivo
[4] = Peroxynitrite-carbonate radical scavenging assay (DHR probe); settings: for IC50: Sin-1, 37° C., 8 minutes, read-out: IC50, inhibition of oxidation of DHR probe (peroxynitrite-carbonate scavenging); for Uric Acid Equivalents: relative to uric acid
Procedure: Inflammatory conditions are characterized by increasing concentrations of reactive oxygen species. In this study, the ability of Compound 1 to specifically scavenge peroxynitrite-carbonate radicals was determined.
To the first column of a 96-well PCR plate (0.2 mL volume) was added 160 μL of TCWS. One well of the first column would equal one IC50 determination. Typically, test compounds were assayed in duplicate, i.e. two wells of column 1 were filled with each TCWS. To the remaining wells in columns 2-11 was added 80 μL of DWS. Using a multichannel pipettor, column 1 was serially diluted in 2-fold dilutions by removing 80 μL from column 1 and transferring with mixing to column 2. Column 2 was then diluted to column 3 and so on until column 11 where 80 μL of the diluted mixture was removed and discarded. At least 2 wells of row 12 were designated as the 0 test compound control to which 80 μL of DWS was added. One well of row 12 per test compound was designated as the background control to which 80 μL of the TCWS was added.
as §1, with “Sin-1” for “AIPH”, “background” for “0 test compound/0 AIPH”, “PC” for “PB”
Each reaction mixture (20 μL) was analyzed for rhodamine 123 product by HPLC using a Phenomenex Luna C18(2) column, 3 um, 4.6×50 mm using an A buffer of water+0.1% TFA and a B buffer of acetonitrile+0.1% TFA and the following gradient method: […]
The absorbance at 280 nm was also recorded to ensure no co-elution of test compound peaks.
Initial examination of the background control samples at the highest test compound concentration were performed to ensure no co-elution of test compound peaks with the product rhodamine 123 at 4 minutes. If co-elution was observed, the compound was not tested until an appropriate HPLC method was developed to separate the product and test compound peaks. The rhodamine 123 AUC was then determined for each test compound concentration and the percent inhibition of rhodamine 123 fluorescence was then determined by the following equation:
% Inhibition=[(AUCo−AUCx)/AUCo]*100
Where AUCo is the AUC of the rhodamine 123 peak at 0 test compound concentration and AUCX is the AUC of the rhodamine 123 peak at each test compound concentration=x.
The standard error of the curve fit for the IC50 was also determined along with the Hill slope. The IC50 determined for uric acid was divided by the IC50 determined for each test compound to generate Uric Acid Equivalents, a measure of the peroxynitrite-carbonate radical scavenging ability relative to uric acid.
Uric Acid Equivalents=[…]

[5] = test system: E. coli; assay: Antibacterial activity, E. coli MIC; assay type: cell-based; settings: Escherichia coli; Table 8

Compound: COC(=O)/C=C/C(=O)OC [BG-12]
% Relapses eduction ([1]; MS clinical studies): 32%
potential side effects ([1]; MS clinical studies): Flushing
% lesion reduction ([1]; MS clinical studies): 69%

Compound: Cc1c(C)c2c(c(C)c1O)CCC(C)(C(=O)O)O2 (centres unmarked) [Trolox]
IC50 [2]: 9 µM
Percent Trolox Activity [2]: 100%
Trolox Equivalents [2]: 1.00

Compound: CCCCCCCCc1ccc(CCC(N)(CO)CO)cc1 [Fingolimod, 2-amino-2-[2-(4-octylphenyl)ethyl]propane-1,3-diol]
% Inhibition Axon Loss [3]: 60%
% Inhibition Clinical Score [3]: 89%
% Inhibition Demyelination [3]: 69%
% Inhibition Inflammation [3]: 59%
% Relapses eduction ([1]; MS clinical studies): 54%
potential side effects ([1]; MS clinical studies): Infections, cancer, cardiac
% lesion reduction ([1]; MS clinical studies): 30%

IC50 [4]: 66.4 µM
Compound: CN(C)[C@@H]1C(O)=C(C(N)=O)C(=O)[C@@]2(O)C(O)=C3C(=O)c4c(O)cccc4C[C@H]3C[C@@H]12 [Sancycline, sancycline]
IC50 [2]: 369 µM
Percent Trolox Activity [2]: 2%
Trolox Equivalents [2]: 0.02
Uric Acid Equivalents [4]: 0.19

IC50 [4]: 12.4 µM
Compound: O=c1[nH]c(=O)c2[nH]c(=O)[nH]c2[nH]1 [Uric acid]
Uric Acid Equivalents [4]: 1

Compound: Natalizumab [TYSABRI ®]
% Relapses eduction ([1]; MS clinical studies): 68%
potential side effects ([1]; MS clinical studies): Liver damage, fatigue, fatal
% lesion reduction ([1]; MS clinical studies): 83%

Compound: CCN(C(=O)c1c(O)c2c(Cl)cccc2n(C)c1=O)c1ccccc1 [Laquinimod]
% Relapses eduction ([1]; MS clinical studies): 21%
potential side effects ([1]; MS clinical studies): Increase in liver enzymes
% lesion reduction ([1]; MS clinical studies): 40%

Compound: C/C(O)=C(\C#N)C(=O)Nc1ccc(C(F)(F)F)cc1 [Teriflunomid]
% Relapses eduction ([1]; MS clinical studies): 30%
potential side effects ([1]; MS clinical studies): Mild infections, Fatigue,
% lesion reduction ([1]; MS clinical studies): 44%

MIC [5]: 0.5 µg/mL (≈ 1.13 µM)
Compound: C[C@H]1c2cccc(O)c2C(=O)C2=C(O)[C@]3(O)C(=O)C(C(N)=O)=C(O)[C@@H](N(C)C)[C@@H]3[C@@H](O)[C@@H]21 [Doxycycline, doxycycline]

Compound: Glatiramer [COPAXONE ®]
% Inhibition Clinical Score [3]: 75%
% Inhibition Demyelination [3]: 74%
% Relapses eduction ([1]; MS clinical studies): 30%
% lesion reduction ([1]; MS clinical studies): 65%
potential side effects ([1]; human, in vivo): Infection, shaking hands,
